In ChEMBL document CHEMBL5131564, “Discovery of Potent and Selective Receptor-Interacting Serine/Threonine Protein Kinase 2 (RIPK2) Inhibitors for the Treatment of Inflammatory Bowel Diseases (IBDs)” (J Med Chem, 2022):
pIC50, pKd: −log10 of the molar value. Active and inactive are the calls of the source. The calls are words filed in the database; no cut-off is given here.

Tests used:
[1] = AUC (0 to t) in Balb/C mouse at 10 mg/kg, po measured upto 48 hrs by LC-MS/MS analysis; format: ADME, organism-based; design: time < 48 hrs, dose 10 mg/kg, route po; conditions: in vivo
[2] = Oral bioavailability in Balb/C mouse at 10 mg/kg measured upto 48 hrs by LC-MS/MS analysis; format: ADME, organism-based; conditions: in vivo
[3] = test system: RAW264.7; experiment: Cytotoxicity against mouse RAW264.7 cells at 62.5 to 250 nM in presence of NOD measured after 24 hrs by propidium iodide staining based flow cytometry; format: toxicity, cell-based; conditions: raw264.7, 24 h, 0.25 µM, dose 62.5-250 nM
[4] = Inhibition of LPS/MDP-stimulated TNFalpha production in C57BL/6J mouse BMDM cells by ELISA relative to control; format: functional, cell-based
[5] = AUC (0 to t) in Balb/C mouse at 10 mg/kg, iv measured upto 48 hrs by LC-MS/MS analysis; format: ADME, organism-based; design: time < 48 hrs, dose 10 mg/kg, route iv; conditions: in vivo
[6] = Elimination half life in Balb/C mouse at 10 mg/kg, po measured upto 48 hrs by LC-MS/MS analysis; format: ADME, organism-based; conditions: in vivo, read-out: beta t1/2 (converted)
[7] = Volume of distribution in Balb/C mouse at 10 mg/kg, iv measured upto 48 hrs by LC-MS/MS analysis; format: ADME, organism-based; conditions: in vivo
[8] = test system: Mus musculus; experiment: Anti-inflammatory activity against DSS-induced acute ulcerative colitis C57BL/6 mouse model assessed as reduction in watery stools at 20 to 40 mg/kg, po once a day measured after 2 days followed by 7 days after DSS treatment; format: functional, organism-based; conditions: dose 20-40 mg/kg, time 2.0 day
[9] = test system: Mus musculus; experiment: Anti-inflammatory activity against DSS-induced acute ulcerative colitis C57BL/6 mouse model assessed as reduction in fecal occult blood at 20 to 40 mg/kg, po once a day measured after 2 days followed by 7 days after DSS treatment; format: functional, organism-based; conditions: dose 20-40 mg/kg, time 2.0 day
[10] = test system: Mus musculus; experiment: Anti-inflammatory activity against DSS-induced acute ulcerative colitis C57BL/6 mouse model assessed as recovery of body weight at 20 to 40 mg/kg, po once a day measured after 2 days followed by 7 days after DSS treatment; format: functional, organism-based; conditions: dose 20-40 mg/kg, time 2.0 day
[11] = target: T1, Receptor-interacting serine/threonine-protein kinase 1 (Homo sapiens, UniProt Q13546); experiment: Inhibition of human RIPK1 by kinase assay
T1 sequence (Q13546 whole entry): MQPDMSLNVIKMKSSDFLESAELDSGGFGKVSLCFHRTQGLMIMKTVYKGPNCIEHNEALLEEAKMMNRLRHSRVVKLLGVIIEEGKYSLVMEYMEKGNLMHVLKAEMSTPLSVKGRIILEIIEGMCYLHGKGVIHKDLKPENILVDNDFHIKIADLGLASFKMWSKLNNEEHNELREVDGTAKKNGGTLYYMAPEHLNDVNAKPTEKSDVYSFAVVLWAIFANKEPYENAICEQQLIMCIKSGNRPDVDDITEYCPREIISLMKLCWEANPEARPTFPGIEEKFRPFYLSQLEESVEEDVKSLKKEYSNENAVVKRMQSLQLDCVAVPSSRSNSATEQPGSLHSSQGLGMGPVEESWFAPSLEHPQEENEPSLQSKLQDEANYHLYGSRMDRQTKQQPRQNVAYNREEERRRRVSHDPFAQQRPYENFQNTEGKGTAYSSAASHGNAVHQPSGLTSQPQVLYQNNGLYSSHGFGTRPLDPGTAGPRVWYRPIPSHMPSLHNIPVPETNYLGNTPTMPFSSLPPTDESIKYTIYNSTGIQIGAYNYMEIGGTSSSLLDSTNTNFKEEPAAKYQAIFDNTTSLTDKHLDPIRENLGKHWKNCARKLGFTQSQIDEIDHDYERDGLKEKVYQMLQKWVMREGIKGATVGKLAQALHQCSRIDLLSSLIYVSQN

[12] = target: Receptor-interacting serine/threonine-protein kinase 2 (Homo sapiens, UniProt O43353); experiment: Binding affinity to human RIPK2 in HEK293 cells; format: cell-based
[13] = target: Platelet-derived growth factor receptor beta (Homo sapiens, UniProt P09619); experiment: Inhibition of human PDGFRbeta by kinase assay
[14] = test system: Mus musculus; experiment: Anti-inflammatory activity against DSS-induced acute ulcerative colitis C57BL/6 mouse model assessed as recovery of weight loss at 20 mg/kg, po for 6 consecutive days; format: functional, organism-based
[15] = Elimination half life in Balb/C mouse at 10 mg/kg, iv measured upto 48 hrs by LC-MS/MS analysis; format: ADME, organism-based; conditions: in vivo, read-out: beta t1/2 (converted)
[16] = Metabolic stability in human liver microsomes assessed as half life at 1 uM by LC/MS/MS analysis; format: ADME, Microsome
[17] = target: Serine/threonine-protein kinase SIK1 (Homo sapiens, UniProt P57059); experiment: Inhibition of human SIK by kinase assay
[18] = Cmax in Balb/C mouse at 10 mg/kg, po measured upto 48 hrs by LC-MS/MS analysis; format: ADME, organism-based; design: dose 10 mg/kg, time < 48 hrs, route po; conditions: in vivo
[19] = Clearance in Balb/C mouse plasma at 10 mg/kg, po measured upto 48 hrs by LC-MS/MS analysis; format: ADME, organism-based
[20] = target: T2, Dual serine/threonine and tyrosine protein kinase (Homo sapiens, UniProt Q6XUX3); experiment: Binding affinity to human RIPK5
T2 sequence (Q6XUX3 whole entry): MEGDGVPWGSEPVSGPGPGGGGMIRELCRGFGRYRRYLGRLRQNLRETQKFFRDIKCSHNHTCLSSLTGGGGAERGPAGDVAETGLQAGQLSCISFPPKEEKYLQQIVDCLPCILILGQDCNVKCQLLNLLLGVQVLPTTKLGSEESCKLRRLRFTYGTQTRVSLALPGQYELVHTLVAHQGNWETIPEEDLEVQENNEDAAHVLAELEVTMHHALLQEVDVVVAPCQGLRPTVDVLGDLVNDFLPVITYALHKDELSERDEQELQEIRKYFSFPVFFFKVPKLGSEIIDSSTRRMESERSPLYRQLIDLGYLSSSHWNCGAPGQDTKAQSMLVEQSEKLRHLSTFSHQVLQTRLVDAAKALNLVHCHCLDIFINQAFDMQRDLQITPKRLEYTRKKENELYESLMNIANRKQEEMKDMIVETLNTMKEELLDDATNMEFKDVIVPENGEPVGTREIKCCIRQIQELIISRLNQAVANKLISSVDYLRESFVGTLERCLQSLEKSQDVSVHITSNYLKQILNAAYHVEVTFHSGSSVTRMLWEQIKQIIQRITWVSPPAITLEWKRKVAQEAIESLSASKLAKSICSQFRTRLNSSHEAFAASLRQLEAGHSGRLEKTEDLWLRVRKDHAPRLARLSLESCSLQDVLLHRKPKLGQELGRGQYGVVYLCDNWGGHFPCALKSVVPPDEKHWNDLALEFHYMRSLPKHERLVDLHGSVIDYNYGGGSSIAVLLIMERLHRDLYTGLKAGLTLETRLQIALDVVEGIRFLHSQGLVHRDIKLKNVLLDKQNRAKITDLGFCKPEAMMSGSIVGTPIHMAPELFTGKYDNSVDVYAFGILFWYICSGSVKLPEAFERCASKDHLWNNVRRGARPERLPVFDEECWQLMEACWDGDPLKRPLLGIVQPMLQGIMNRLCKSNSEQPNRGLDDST

[21] = Drug uptake in DSS-induced acute ulcerative colitis C57BL/6 mouse model assessed as drug concentration in colon at 20 mg/kg, po after 8 hrs; format: ADME, organism-based; conditions: read-out: Drug uptake

Sequence of Serine/threonine-protein kinase SIK1 (P57059 whole entry): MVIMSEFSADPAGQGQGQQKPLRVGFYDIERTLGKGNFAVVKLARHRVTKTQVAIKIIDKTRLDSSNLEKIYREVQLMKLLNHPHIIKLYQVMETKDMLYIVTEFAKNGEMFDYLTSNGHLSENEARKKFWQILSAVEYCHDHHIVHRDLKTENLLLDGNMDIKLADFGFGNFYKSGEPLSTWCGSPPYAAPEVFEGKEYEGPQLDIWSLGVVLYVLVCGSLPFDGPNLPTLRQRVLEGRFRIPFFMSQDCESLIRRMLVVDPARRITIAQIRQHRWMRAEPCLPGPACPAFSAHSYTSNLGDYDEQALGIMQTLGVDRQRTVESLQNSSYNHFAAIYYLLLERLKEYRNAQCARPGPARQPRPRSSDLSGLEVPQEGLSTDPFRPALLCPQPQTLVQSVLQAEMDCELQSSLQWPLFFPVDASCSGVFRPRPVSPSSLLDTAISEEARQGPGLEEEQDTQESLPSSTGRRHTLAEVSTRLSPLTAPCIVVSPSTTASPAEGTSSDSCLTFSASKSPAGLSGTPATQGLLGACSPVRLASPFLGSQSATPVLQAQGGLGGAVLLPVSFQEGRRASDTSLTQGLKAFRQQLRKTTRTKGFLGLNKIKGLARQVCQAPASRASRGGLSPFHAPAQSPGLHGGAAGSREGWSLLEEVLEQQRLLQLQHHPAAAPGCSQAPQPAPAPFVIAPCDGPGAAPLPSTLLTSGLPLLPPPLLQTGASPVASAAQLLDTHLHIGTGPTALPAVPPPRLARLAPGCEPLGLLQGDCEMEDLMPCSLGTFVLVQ
Sequence of Receptor-interacting serine/threonine-protein kinase 2 (O43353 whole entry): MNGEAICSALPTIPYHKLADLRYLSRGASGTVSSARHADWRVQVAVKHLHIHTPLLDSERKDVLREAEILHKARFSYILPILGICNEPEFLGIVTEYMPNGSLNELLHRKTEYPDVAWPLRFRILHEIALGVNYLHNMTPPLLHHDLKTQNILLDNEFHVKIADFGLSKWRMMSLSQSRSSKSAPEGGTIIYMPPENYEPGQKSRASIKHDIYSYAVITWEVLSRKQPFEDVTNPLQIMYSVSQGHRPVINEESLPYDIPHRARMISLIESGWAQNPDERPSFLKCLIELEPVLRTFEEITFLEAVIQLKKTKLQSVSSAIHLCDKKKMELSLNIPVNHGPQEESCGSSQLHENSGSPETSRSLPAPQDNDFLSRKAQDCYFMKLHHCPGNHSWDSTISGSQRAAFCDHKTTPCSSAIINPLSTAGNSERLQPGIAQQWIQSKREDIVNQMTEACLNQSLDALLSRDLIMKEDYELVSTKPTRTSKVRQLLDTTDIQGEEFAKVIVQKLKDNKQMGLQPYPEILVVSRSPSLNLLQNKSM
Sequence of Platelet-derived growth factor receptor beta (P09619 whole entry): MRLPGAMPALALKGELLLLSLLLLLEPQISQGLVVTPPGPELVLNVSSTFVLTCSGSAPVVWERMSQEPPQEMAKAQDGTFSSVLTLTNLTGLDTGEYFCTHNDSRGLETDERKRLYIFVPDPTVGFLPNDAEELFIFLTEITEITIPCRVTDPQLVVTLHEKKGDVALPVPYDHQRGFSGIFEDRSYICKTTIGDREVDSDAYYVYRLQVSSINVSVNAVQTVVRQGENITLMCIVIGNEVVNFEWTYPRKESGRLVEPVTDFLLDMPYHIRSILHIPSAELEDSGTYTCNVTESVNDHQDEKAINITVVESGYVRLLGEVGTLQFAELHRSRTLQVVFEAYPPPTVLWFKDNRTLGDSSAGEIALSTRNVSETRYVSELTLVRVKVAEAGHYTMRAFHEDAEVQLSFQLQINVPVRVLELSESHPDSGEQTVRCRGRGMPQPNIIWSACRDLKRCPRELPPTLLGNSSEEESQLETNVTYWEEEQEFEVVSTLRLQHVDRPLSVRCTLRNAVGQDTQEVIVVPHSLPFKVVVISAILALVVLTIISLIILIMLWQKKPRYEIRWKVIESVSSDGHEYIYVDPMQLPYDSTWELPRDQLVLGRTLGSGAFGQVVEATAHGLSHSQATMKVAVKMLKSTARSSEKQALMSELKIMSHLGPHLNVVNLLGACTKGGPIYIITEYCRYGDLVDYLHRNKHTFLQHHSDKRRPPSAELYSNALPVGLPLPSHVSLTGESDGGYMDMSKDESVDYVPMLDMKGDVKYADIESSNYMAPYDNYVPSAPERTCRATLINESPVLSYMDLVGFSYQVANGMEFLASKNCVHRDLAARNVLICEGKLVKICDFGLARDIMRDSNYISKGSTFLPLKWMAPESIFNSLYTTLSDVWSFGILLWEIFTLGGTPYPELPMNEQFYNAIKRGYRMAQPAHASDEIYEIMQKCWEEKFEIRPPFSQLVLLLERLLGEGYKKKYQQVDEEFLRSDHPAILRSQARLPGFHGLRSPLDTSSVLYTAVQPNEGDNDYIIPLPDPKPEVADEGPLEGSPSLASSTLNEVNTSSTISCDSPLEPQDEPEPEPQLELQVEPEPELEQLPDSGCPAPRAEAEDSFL

Cc1ccc(-c2cn([C@H]3CC[C@@H](N)CC3)c3ncnc(N)c23)c(F)c1
AUC(0-t) at 48 h [1]: 151 ng·h/mL
bioavailability [2]: 15.1%
Activity [3]: Non-Toxic
pIC50 [4]: 9.52
AUC(0-t) at 48 h [5]: 1000 ng·h/mL
half-life [6]: 3.62 h
Vd [7]: 43.9 L/kg
Activity [8]: Active
Activity [9]: Active
Activity [10]: Active
pIC50 [11]: < 4.52
pKd [12]: 9.55
pIC50 [13]: 6.06
Activity [14]: Active
half-life [15]: 3.9 h
half-life at 1 µM [16]: > 2 h
pIC50 [17]: 7.05
Cmax [18]: 68.1 ng/mL
CL/F [19]: 1130 mL/min/kg
pKd [20]: 6.17
concentration at 8 h [21]: 9140 ng/g
